Test results reported in article PMC9697349, “Mouse Pharmacokinetics and In Vitro Metabolism of SH-11037 and SH-11008, Synthetic Homoisoflavonoids for Retinal Neovascularization” (Pharmaceutics, 2022).

Columns and labels:
[1] = Stability of SH-11037 in 0.1 M phosphate buffer (pH 7.4); assay type: physicochemical
Description: SH-11037 (1 μM) was incubated in triplicate in 0.1 M phosphate buffer (pH 7.4) or in mouse, dog, and human plasma to investigate its stability. SH-11037 (40 μM) in 50 vol% aqueous CH3CN was mixed with 0.1 M phosphate buffer (pH 7.4) or plasma diluted 3-fold with 0.1 M phosphate buffer (pH 7.4) to a final volume of 160 μL and a final concentration of 1 μM. The resulting solutions were then incubated at 37 °C in a shaking water bath. The incubations were terminated at selected times by adding 160 µL of ice-cold CH3CN containing glipizide (500 ng/mL) as the internal standard (IS). The resulting mixture was vortexed, sonicated, and centrifuged at 3000× g for 20 min. Aliquots of the supernatant were subjected to LC-MS/MS analysis described below in Section 2.6.2.
The LC-MS/MS system consisted of Agilent 1290 Infinity HPLC system and Agilent 6530 Accurate-Mass Quadrupole Time-of-Flight (Q-TOF) mass spectrometer equipped with dual AJS ESI ion source (Agilent Technologies Korea, Seoul, Korea). Chromatographic separation was performed on an Agilent Eclipse Plus C18 column (2.1 × 100 mm, 3.5 μm) with a Phenomenex Security Guard C18 guard column (4 × 20 mm) maintained at 40 °C. The mobile phase consisted of 0.1% formic acid in deionized water (A) and 0.1% formic acid in CH3CN (B): 0~2 min 5% B, 2~7 min to 95% B, and 7~10 min 95% B. Total run time including a 5 min equilibration time was 15 min. […]

[2] = system: hydrolysis of SH-11037 in mouse plasma; assay type: in vitro ADME; conditions: ICR, mouse, 1 min, 1 µM, pH 7.4
Description: (§1) Chemical inhibition assay was conducted in mouse, dog, and human plasma and mouse eye homogenate to identify the enzyme(s) involved in the hydrolysis of SH-11037. BW284c51 [16], DTNB [17], EPZ [18], and BNPP [19, 20] were used as selective inhibitors of acetylcholinesterase (AChE), paraoxonase 1 (PON1), butyrylcholinesterase (BchE), and carboxylesterase (CES), respectively. Mouse eyes (male ICR mouse, 8 weeks old) taken immediately after CO2 asphyxiation were homogenized by an electric tissue homogenizer (Tissue Master-125, Omni International, Kennesaw, GA, USA) in an equal amount of 0.1 M potassium phosphate buffer (pH 7.4) on ice. The resulting homogenate was then centrifuged at 3000× g for 20 min. The supernatant was stored at −80 °C until the experiment. DMSO stock solutions of the inhibitors (0.4, 4 and 40 mM) were mixed with plasma diluted 3-fold with 0.1 M phosphate buffer (pH 7.4) to a final volume of 160 μL and final inhibitor concentrations of 0.01, 0.1, and 1 mM. The supernatant of mouse eye homogenate was treated similarly with only BNPP as the inhibitor and a single inhibitor concentration of 1 mM. The resulting pre-incubation solutions were then incubated for 2 h at 37 °C in a shaking water bath. SH-11037 (40 μM) in 50 vol% aqueous CH3CN was mixed with the pre-incubation solutions to a final volume of 160 μL and a final concentration of 1 μM. The resulting solutions were then incubated at 37 °C in a shaking water bath. The incubations were terminated at selected times by adding 160 µL of ice-cold CH3CN containing glipizide (500 ng/mL) as the IS. The resulting mixture was vortexed, sonicated, and centrifuged at 3000× g for 20 min. Aliquots of the supernatant were subjected to LC-MS/MS analysis described below in Section 2.6.2.
(§2) The LC-MS/MS system consisted of Agilent 1290 Infinity HPLC system and Agilent 6530 Accurate-Mass Quadrupole Time-of-Flight (Q-TOF) mass spectrometer equipped with dual AJS ESI ion source (Agilent Technologies Korea, Seoul, Korea). Chromatographic separation was performed on an Agilent Eclipse Plus C18 column (2.1 × 100 mm, 3.5 μm) with a Phenomenex Security Guard C18 guard column (4 × 20 mm) maintained at 40 °C. The mobile phase consisted of 0.1% formic acid in deionized water (A) and 0.1% formic acid in CH3CN (B): 0~2 min 5% B, 2~7 min to 95% B, and 7~10 min 95% B. Total run time including a 5 min equilibration time was 15 min. The flow rate was 0.4 mL/min. The injection volume was 5 µL. The mass spectrometer was operated in a positive Auto MS/MS scan mode with a full scan mass range of m/z 100–1000, fragmentor voltage 150 V, and CE 30 eV, selecting the two most intense precursor ions for collision-induced dissociation. Putative metabolites were identified using Agilent Mass Hunter Metabolite ID software (ver.B.04.00) followed by manual interpretation of the spectral data. Chromatograms and mass spectra were extracted using Agilent Mass Hunter Qualitative Analysis software (ver. B.05.00).

[3] = assay type: in vitro ADME; conditions: male, ICR, mouse, 1 min, 1 µM, pH 7.4
Description: as §1, §2

[4] = system: hydrolysis of SH-11037 in dog plasma; assay type: in vitro ADME; conditions: beagle, 2 h, 1 µM, pH 7.4
Description: as §1, §2

[5] = Metabolic stability of SH-11008 in mouse liver S9 fractions; assay type: in vitro ADME
Description: (§3) For studies using NADPH or PAPS as a cofactor, 4 μL of SH-11008 (40 μM) solution in 40 vol% CH3CN were mixed with 40 μL of 4 mg protein/mL HLS9 or MLS9 fractions diluted in 0.1 M potassium phosphate buffer (pH 7.4) and 100 μL of 0.1 M potassium phosphate buffer (pH 7.4). When using UDPGA as a cofactor, 32 μL of UGT Reaction Mix Solution B and 68 μL of de-ionized water were used instead of 100 μL of 0.1 M potassium phosphate buffer (pH 7.4). The mixture was warmed at 37 °C for 5 min. The reaction was then initiated by adding 16 μL of 10 mM cofactor dissolved in de-ionized water. The assay condition for UDPGA was used for metabolic stability studies conducted with a mixture of the three cofactors. The reaction was terminated at selected times by adding 160 μL of ice-cold CH3CN containing glipizide (500 ng/mL) as the IS. The resulting mixture was vortexed, sonicated, and centrifuged at 3000× g for 20 min. Aliquots of the supernatant were subjected to LC-MS/MS analysis described below in Section 2.6.2.
as §2
(§4) Pharmacokinetic parameters were calculated by noncompartmental analysis of plasma concentration versus time profiles using PKSolver. The scaling factors of mice and human, half-life (t1/2), intrinsic clearance (CLint), hepatic clearance (CLH), and hepatic extraction ratio (EH) were from the in vitro studies as described previously. […] The fraction of parent drug converted to the metabolite (fm) was calculated as follows:fm (%) = (AUC(m) × CL(m))/D × MWparent/MWmetabolite × 100,(1) where D is dose of the parent drug, AUC(m) is area under the curve for the metabolite after a dose of parent drug, CL(m) is CL of metabolite, and MW is molecular weight.

[6] = Metabolic stability of SH-11008 in human liver S9 fractions; assay type: in vitro ADME
Description: as §3, §2, §4

Row | CLint scaled at 1 µM ([5]; CD-1, liver S9 fractions, pH 7.4, mouse, scaled from in vitro t1/2 in MLS9) | half-life at 1 µM ([5]; CD-1, mouse, liver S9 fractions, SH-11008 1 µM, MLS9 1 mg protein/mL, mixture of NADPH, UDPGA and PAPS (1 mM), 37 °C) | metabolic stability with cofactor added individually ([5]; MLS9, NADPH, UDPGA or PAPS 1 mM individually, 30 min) | EH ([5]; mouse, predicted hepatic extraction ratio from MLS9 data) | CLH ([5]; mouse, predicted with the well-stirred model from MLS9 data) | metabolic stability in the presence of NADPH ([6]; HLS9, NADPH 1 mM only, 30 min) | half-life at 1 µM ([6]; human, liver S9 fractions, SH-11008 1 µM, HLS9 1 mg protein/mL, mixture of NADPH, UDPGA and PAPS (1 mM), 37 °C) | EH ([6]; human, predicted hepatic extraction ratio from HLS9 data) | CLH ([6]; human, predicted with the well-stirred model from HLS9 data) | CLint scaled at 1 µM ([6]; liver S9 fractions, human, scaled from in vitro t1/2 in HLS9) | SMILES | SH-11037 remaining ([1]; 1 µM, 0.1 M phosphate buffer pH 7.4, 1 h incubation at 37 °C) | SH-11008 formation in buffer ([1]; SH-11037 1 µM, pH 7.4 buffer, 1 h at 37 °C) | SH-11008 Formation (%), % of SH-11037 converted to SH-11008 [2] | SH-11037 converted to SH-11008 [3] | SH-11008 Formation (%), % of SH-11037 converted to SH-11008 [4]
1 | – | – | – | – | – | – | – | – | – | – | COc1ccc(CC2COc3cc(OC)c(OC)c(OC)c3C2=O)cc1OC(=O)[C@H](Cc1ccccc1)NC(=O)OC(C)(C)C (stereo partly drawn) [SH-11037] | ~100% | not detected | 98.3 ± 2.8% | ~ 90% | 91.7 ± 1.2%
2 | 1510 mL/min/kg | 5.7 min | metabolized rapidly | 0.94 | 84.9 mL/min/kg | stable | 0.6 min | 0.99 | 19.9 mL/min/kg | 3580 mL/min/kg | COc1ccc(CC2COc3cc(OC)c(OC)c(OC)c3C2=O)cc1O (stereo not drawn) [SH-11008] | – | – | – | – | –
